Test results published in article PMC5218480 (PLoS ONE, 2017).

Test system: MV-4-11 cells
Experiment: Gene expression microarray analysis (Affymetrix PrimeView) and GSEA
Format: cell-based, human
Design: RFU PODN (11730768_x_at) / Fold change /veh PODN (11730768_x_at) / RFU LINC00158 (11744669_a_at) / Fold change /veh LINC00158 (11744669_a_at) / RFU DUSP10 (11751237_a_at) / Fold change /veh DUSP10 (11751237_a_at) / RFU ID3 (11757404_x_at) / Fold change /veh ID3 (11757404_x_at) / RFU PLEKHG5 (11737974_s_at) / Fold change /veh PLEKHG5 (11737974_s_at) / RFU LRRC4B (11730491_at) / Fold change /veh LRRC4B (11730491_at) / RFU GIMAP4 (11747438_a_at) / Fold change /veh GIMAP4 (11747438_a_at) / RFU KRT8 (11758183_x_at) / Fold change /veh KRT8 (11758183_x_at) / RFU CNN1 (11734310_a_at) / Fold change /veh CNN1 (11734310_a_at) / RFU VPS37D (11726825_at) / Fold change /veh VPS37D (11726825_at) / RFU C10orf10 (11716522_x_at) / Fold change /veh C10orf10 (11716522_x_at) / RFU KIR2DL2 /// KIR2DL4 /// KIR2DL5A /// KIR2DL5B /// KIR2DS1 /// KIR2DS2 /// KIR2DS3 /// KIR2DS4 /// KIR3DL3 /// KIR3DL3 /// KIR3DS1 (11738374_at) / Fold change /veh KIR2DL2 /// KIR2DL4 /// KIR2DL5A /// KIR2DL5B /// KIR2DS1 /// KIR2DS2 /// KIR2DS3 /// KIR2DS4 /// KIR3DL3 /// KIR3DL3 /// KIR3DS1 (11738374_at) / RFU C1QL1 (11718748_at) / Fold change /veh C1QL1 (11718748_at) / RFU TMPRSS4 (11747572_a_at) / Fold change /veh TMPRSS4 (11747572_a_at) / RFU HAMP (11756126_x_at) / Fold change /veh HAMP (11756126_x_at) / RFU RNFT2 (11725882_a_at) / Fold change /veh RNFT2 (11725882_a_at) / RFU NR4A2 (11747474_a_at) / Fold change /veh NR4A2 (11747474_a_at) / RFU ABCC12 (11746883_a_at) / Fold change /veh ABCC12 (11746883_a_at) / RFU TMEM136 (11760407_x_at) / Fold change /veh TMEM136 (11760407_x_at) / RFU CLDN22 /// WWC2 (11732394_at) / Fold change /veh CLDN22 /// WWC2 (11732394_at) / RFU HLA-DPB1 (11760878_x_at) / Fold change /veh HLA-DPB1 (11760878_x_at) / RFU SPINT1 (11716480_a_at) / Fold change /veh SPINT1 (11716480_a_at) / RFU GAP43 (11754022_s_at) / Fold change /veh GAP43 (11754022_s_at) / RFU A4GNT (11735810_at) / Fold change /veh A4GNT (11735810_at) / RFU PRB3 (11715151_x_at) / Fold change /veh PRB3 (11715151_x_at) / RFU TUBB4B (11761932_at) / Fold change /veh TUBB4B (11761932_at) / RFU CAPN14 (11732068_a_at) / Fold change /veh CAPN14 (11732068_a_at) / RFU TMCC2 (11721928_a_at) / Fold change /veh TMCC2 (11721928_a_at) / RFU IRGQ (11745062_a_at) / Fold change /veh IRGQ (11745062_a_at) / RFU FAM174B (11720279_a_at) / Fold change /veh FAM174B (11720279_a_at) / RFU TMPRSS4 (11748680_a_at) / Fold change /veh TMPRSS4 (11748680_a_at) / RFU FAM212B (11763350_a_at) / Fold change /veh FAM212B (11763350_a_at) / RFU PLEKHG5 (11743358_a_at) / Fold change /veh PLEKHG5 (11743358_a_at) / RFU ZSCAN30 (11745921_a_at) / Fold change /veh ZSCAN30 (11745921_a_at) / RFU CMKLR1 (11741424_a_at) / Fold change /veh CMKLR1 (11741424_a_at) / RFU LOC101060620 /// MAPK8IP1 (11723275_at) / Fold change /veh LOC101060620 /// MAPK8IP1 (11723275_at) / RFU SPTSSB (11747773_x_at) / Fold change /veh SPTSSB (11747773_x_at) / RFU PRSS12 (11739890_at) / Fold change /veh PRSS12 (11739890_at) / RFU BIN1 (11741810_x_at) / Fold change /veh BIN1 (11741810_x_at) / RFU WNT11 (11732464_a_at) / Fold change /veh WNT11 (11732464_a_at) / RFU C10orf10 (11716521_a_at) / Fold change /veh C10orf10 (11716521_a_at) / RFU C5orf56 (11738089_at) / Fold change /veh C5orf56 (11738089_at) / RFU CYB561 (11721691_x_at) / Fold change /veh CYB561 (11721691_x_at) / RFU ANKRD19P (11752326_a_at) / Fold change /veh ANKRD19P (11752326_a_at) / RFU OR2T12 /// OR2T33 /// OR2T8 (11738714_s_at) / Fold change /veh OR2T12 /// OR2T33 /// OR2T8 (11738714_s_at) / RFU VCAN (11748164_a_at) / Fold change /veh VCAN (11748164_a_at) / RFU JSRP1 (11732532_at) / Fold change /veh JSRP1 (11732532_at) / RFU KRTAP10-11 (11738290_x_at) / Fold change /veh KRTAP10-11 (11738290_x_at) / RFU MYO3A (11730013_a_at) / Fold change /veh MYO3A (11730013_a_at) / RFU EBF3 (11725865_a_at) / Fold change /veh EBF3 (11725865_a_at) / RFU CAMK2N1 (11719241_x_at) / Fold change /veh CAMK2N1 (11719241_x_at) / RFU C5orf56 (11738088_a_at) / Fold change /veh C5orf56 (11738088_a_at) / RFU OLFML3 (11715873_a_at) / Fold change /veh OLFML3 (11715873_a_at) / RFU LOC100653217 /// NTM (11731650_a_at) / Fold change /veh LOC100653217 /// NTM (11731650_a_at) / RFU MAPK11 (11762145_a_at) / Fold change /veh MAPK11 (11762145_a_at) / RFU FIZ1 (11724087_x_at) / Fold change /veh FIZ1 (11724087_x_at) / RFU OASL (11726364_x_at) / Fold change /veh OASL (11726364_x_at) / RFU SOX15 (11748057_x_at) / Fold change /veh SOX15 (11748057_x_at) / RFU CD79A (11719716_a_at) / Fold change /veh CD79A (11719716_a_at) / RFU HIST1H1D (11736915_at) / Fold change /veh HIST1H1D (11736915_at) / RFU CASKIN2 (11723855_a_at) / Fold change /veh CASKIN2 (11723855_a_at) / RFU LOC730098 (11760151_x_at) / Fold change /veh LOC730098 (11760151_x_at) / RFU OR4N2 (11742367_at) / Fold change /veh OR4N2 (11742367_at) / RFU PRRT2 (11749266_a_at) / Fold change /veh PRRT2 (11749266_a_at) / RFU SNX32 (11753110_a_at) / Fold change /veh SNX32 (11753110_a_at) / RFU CDHR5 (11726645_a_at) / Fold change /veh CDHR5 (11726645_a_at) / RFU RCAN1 (11760418_a_at) / Fold change /veh RCAN1 (11760418_a_at) / RFU FAM167A (11723789_a_at) / Fold change /veh FAM167A (11723789_a_at) / RFU FAM26E (11764081_at) / Fold change /veh FAM26E (11764081_at) / RFU ISYNA1 (11749810_s_at) / Fold change /veh ISYNA1 (11749810_s_at) / RFU ACY1 (11761880_at) / Fold change /veh ACY1 (11761880_at) / RFU 11764098_at / Fold change /veh 11764098_at / RFU SAMD14 (11745864_x_at) / Fold change /veh SAMD14 (11745864_x_at) / RFU NPB (11741838_a_at) / Fold change /veh NPB (11741838_a_at) / RFU TMPRSS6 (11731388_a_at) / Fold change /veh TMPRSS6 (11731388_a_at) / RFU KRTAP10-2 (11738614_at) / Fold change /veh KRTAP10-2 (11738614_at) / RFU ARHGAP8 /// PRR5-ARHGAP8 (11727945_x_at) / Fold change /veh ARHGAP8 /// PRR5-ARHGAP8 (11727945_x_at) / RFU KRTAP5-7 /// NADSYN1 (11734609_at) / Fold change /veh KRTAP5-7 /// NADSYN1 (11734609_at) / RFU RASL12 (11751679_a_at) / Fold change /veh RASL12 (11751679_a_at) / RFU CDKN2B (11736163_a_at) / Fold change /veh CDKN2B (11736163_a_at) / RFU PRF1 (11729649_at) / Fold change /veh PRF1 (11729649_at) / RFU, ZNF638 /// ZNF638-IT1 / Fold change vs veh, ZNF638 /// ZNF638-IT1 / RFU, PANK3 / Fold change vs veh, PANK3 / RFU, SH3YL1 / Fold change vs veh, SH3YL1 / RFU, ZEB2 / Fold change vs veh, ZEB2 / RFU, NRIP1 / Fold change vs veh, NRIP1 / RFU, PTTG1IP / Fold change vs veh, PTTG1IP / RFU, CAPN2 / Fold change vs veh, CAPN2 / RFU, MED14 / Fold change vs veh, MED14 / RFU, SNORA58 / Fold change vs veh, SNORA58 / RFU, C1orf63 / Fold change vs veh, C1orf63 / RFU, LRRFIP1 / Fold change vs veh, LRRFIP1 / RFU, NDUFAF7 / Fold change vs veh, NDUFAF7 / RFU, SLC12A2 / Fold change vs veh, SLC12A2 / RFU, IBTK / Fold change vs veh, IBTK / RFU, ESF1 / Fold change vs veh, ESF1 / Fold change vs veh, TMEM50B / RFU, TAOK1 / Fold change vs veh, TAOK1 / RFU, ACBD3 / Fold change vs veh, ACBD3 / RFU, TMA16 / Fold change vs veh, TMA16 / RFU, RWDD3 / Fold change vs veh, RWDD3 / RFU, BCAT1 / Fold change vs veh, BCAT1 / RFU, EDEM3 / Fold change vs veh, EDEM3 / RFU, TMEM33 / Fold change vs veh, TMEM33 / RFU, WDR75 / Fold change vs veh, WDR75 / RFU, AHCTF1 / Fold change vs veh, AHCTF1 / RFU, TFRC / Fold change vs veh, TFRC / RFU, ZDHHC17 / Fold change vs veh, ZDHHC17 / RFU, NOM1 / Fold change vs veh, NOM1 / RFU, ARL8B / Fold change vs veh, ARL8B / RFU, ZBTB11 / Fold change vs veh, ZBTB11 / RFU, TAMM41 / Fold change vs veh, TAMM41 / RFU, KIAA1704 /// LOC100996395 / Fold change vs veh, KIAA1704 /// LOC100996395 / RFU, ING1 / Fold change vs veh, ING1 / RFU, TRMT61B / Fold change vs veh, TRMT61B / RFU, FUBP3 / Fold change vs veh, FUBP3 / RFU, TP53 / Fold change vs veh, TP53 / RFU, TNKS2 / Fold change vs veh, TNKS2 / RFU, ZFP14 / Fold change vs veh, ZFP14 / RFU, ACTR2 / Fold change vs veh, ACTR2 / RFU, PPP3R1 / Fold change vs veh, PPP3R1 / RFU, PIK3R1 / Fold change vs veh, PIK3R1 / RFU, HNRNPA1 / Fold change vs veh, HNRNPA1 / RFU, RNF170 / Fold change vs veh, RNF170 / RFU, ZNF28 / Fold change vs veh, ZNF28 / RFU, RNGTT / Fold change vs veh, RNGTT / RFU, OGT / Fold change vs veh, OGT / RFU, BRD1 / Fold change vs veh, BRD1 / RFU, MARS / Fold change vs veh, MARS / RFU, ZNF655 / Fold change vs veh, ZNF655 / RFU, FAHD1 / Fold change vs veh, FAHD1 / RFU, BDP1 / Fold change vs veh, BDP1 / RFU, LRRCC1 / Fold change vs veh, LRRCC1 / RFU, ARID1A / Fold change vs veh, ARID1A / RFU, ZNF146 / Fold change vs veh, ZNF146 / RFU, ZNF330 / Fold change vs veh, ZNF330 / RFU, GPN3 / Fold change vs veh, GPN3 / RFU, C9orf123 / Fold change vs veh, C9orf123 / RFU, N4BP2L2 / Fold change vs veh, N4BP2L2 / RFU, ARFIP1 / Fold change vs veh, ARFIP1 / RFU, FAM179B / Fold change vs veh, FAM179B / RFU, BCL10 / Fold change vs veh, BCL10 / RFU, UHRF1BP1L / Fold change vs veh, UHRF1BP1L / RFU, BET1 / Fold change vs veh, BET1 / RFU, CNOT2 / Fold change vs veh, CNOT2 / RFU, ZNF268 / Fold change vs veh, ZNF268 / Fold change vs veh, ZNF507 / RFU, DGCR2 / Fold change vs veh, DGCR2 / RFU, WDSUB1 / Fold change vs veh, WDSUB1 / Fold change vs veh, HSP90B1 /// MIR3652 / RFU, ADSS / Fold change vs veh, ADSS / RFU, GK / Fold change vs veh, GK / RFU, ZNF148 / Fold change vs veh, ZNF148 / RFU, TAF9 / Fold change vs veh, TAF9 / RFU, SLC1A5 / Fold change vs veh, SLC1A5 / RFU, SLMO2 / Fold change vs veh, SLMO2 / RFU, ABCC4 / Fold change vs veh, ABCC4 / RFU, LOC101060439 /// RAP1B / Fold change vs veh, LOC101060439 /// RAP1B / RFU, RFX7 / Fold change vs veh, RFX7 / RFU, GTPBP10 / Fold change vs veh, GTPBP10 / RFU, CNEP1R1 / Fold change vs veh, CNEP1R1 / RFU, BIVM-ERCC5 /// ERCC5 / Fold change vs veh, BIVM-ERCC5 /// ERCC5 / RFU, ILF3 / Fold change vs veh, ILF3 / RFU 11762660_at / Fold change /veh 11762660_at / RFU VCAN (11757783_s_at) / Fold change /veh VCAN (11757783_s_at) / RFU DDX43 (11728927_at) / Fold change /veh DDX43 (11728927_at) / RFU KRT8 (11758188_x_at) / Fold change /veh KRT8 (11758188_x_at) / RFU NKD1 (11759106_at) / Fold change /veh NKD1 (11759106_at) / RFU SRD5A1 (11742802_a_at) / Fold change /veh SRD5A1 (11742802_a_at) / RFU TPSAB1 /// TPSB2 (11721975_s_at) / Fold change /veh TPSAB1 /// TPSB2 (11721975_s_at) / RFU GSTM3 (11746129_a_at) / Fold change /veh GSTM3 (11746129_a_at) / RFU IL23R (11737362_x_at) / Fold change /veh IL23R (11737362_x_at) / RFU TMEM51 (11727254_a_at) / Fold change /veh TMEM51 (11727254_a_at) / RFU PIWIL2 (11732686_x_at) / Fold change /veh PIWIL2 (11732686_x_at) / RFU ORM1 (11744905_x_at) / Fold change /veh ORM1 (11744905_x_at) / RFU CCDC152 (11743942_at) / Fold change /veh CCDC152 (11743942_at) / RFU ECM1 (11717891_a_at) / Fold change /veh ECM1 (11717891_a_at) / RFU IL23R (11748794_a_at) / Fold change /veh IL23R (11748794_a_at) / RFU TNFAIP8L3 (11732012_x_at) / Fold change /veh TNFAIP8L3 (11732012_x_at) / RFU MBOAT4 (11741988_at) / Fold change /veh MBOAT4 (11741988_at) / RFU 11764193_at / Fold change /veh 11764193_at / RFU TMEM53 (11763286_at) / Fold change /veh TMEM53 (11763286_at) / RFU MAGEB2 (11727129_at) / Fold change /veh MAGEB2 (11727129_at) / RFU TMEM200A (11744735_a_at) / Fold change /veh TMEM200A (11744735_a_at) / RFU CCDC152 (11751479_a_at) / Fold change /veh CCDC152 (11751479_a_at) / RFU FAM211A (11726209_a_at) / Fold change /veh FAM211A (11726209_a_at) / RFU RGS16 (11746705_a_at) / Fold change /veh RGS16 (11746705_a_at) / RFU VCAN (11755009_s_at) / Fold change /veh VCAN (11755009_s_at) / RFU RHOB (11743442_s_at) / Fold change /veh RHOB (11743442_s_at) / RFU RGS16 (11720943_a_at) / Fold change /veh RGS16 (11720943_a_at) / RFU RGS16 (11720944_at) / Fold change /veh RGS16 (11720944_at) / RFU, VPS4B / Fold change vs veh, VPS4B / RFU, CREB1 / Fold change vs veh, CREB1 / RFU, DNAJC13 / Fold change vs veh, DNAJC13 / RFU, GNAQ / Fold change vs veh, GNAQ / RFU, CDK5R1 / Fold change vs veh, CDK5R1 / RFU, ZRANB3 / Fold change vs veh, ZRANB3 / RFU, CUL4A / Fold change vs veh, CUL4A / RFU, CCNY / Fold change vs veh, CCNY / RFU, UFL1 / Fold change vs veh, UFL1 / RFU, COG3 / Fold change vs veh, COG3 / RFU, DIAPH2 / Fold change vs veh, DIAPH2 / RFU, SKA2 / Fold change vs veh, SKA2 / RFU, AFF3 / Fold change vs veh, AFF3 / RFU, LMF1 / Fold change vs veh, LMF1 / RFU, IPO11 / Fold change vs veh, IPO11 / RFU, DFFB / Fold change vs veh, DFFB / RFU, FOXP1 / Fold change vs veh, FOXP1 / RFU, CARD8 / Fold change vs veh, CARD8 / RFU, STRN3 / Fold change vs veh, STRN3 / RFU, ADK / Fold change vs veh, ADK / RFU, RASSF2 / Fold change vs veh, RASSF2 / RFU, WIPF1 / Fold change vs veh, WIPF1 / RFU, LARP1B / Fold change vs veh, LARP1B / RFU, RASA1 / Fold change vs veh, RASA1 / RFU, RB1 / Fold change vs veh, RB1 / RFU, PPFIA1 / Fold change vs veh, PPFIA1 / RFU, MAT2A / Fold change vs veh, MAT2A / RFU, CCT5 / Fold change vs veh, CCT5 / RFU, WDR92 / Fold change vs veh, WDR92 / RFU, CUX1 / Fold change vs veh, CUX1 / RFU, TTC7A / Fold change vs veh, TTC7A / RFU, TMEM135 / Fold change vs veh, TMEM135 / RFU, DEPTOR / Fold change vs veh, DEPTOR / RFU, CPM / Fold change vs veh, CPM / RFU, DNAJB6 / Fold change vs veh, DNAJB6 / RFU, CACNA2D3 / Fold change vs veh, CACNA2D3 / RFU, DTX4 / Fold change vs veh, DTX4 / RFU, TFCP2 / Fold change vs veh, TFCP2 / RFU, GMCL1 /// GMCL1P1 / Fold change vs veh, GMCL1 /// GMCL1P1 / RFU, AEBP2 / Fold change vs veh, AEBP2 / RFU, SNHG1 /// SNORD22 /// SNORD25 /// SNORD26 /// SNORD27 /// SNORD28 /// SNORD29 /// SNORD31 / Fold change vs veh, SNHG1 /// SNORD22 /// SNORD25 /// SNORD26 /// SNORD27 /// SNORD28 /// SNORD29 /// SNORD31 / Fold change (Aza/veh), C12orf56 (ProbeSet 11735607_a_at) / Fold change (ACY-1035/veh), C12orf56 (ProbeSet 11735607_a_at) / Fold change (Aza/veh), FGFR1OP (ProbeSet 11751329_s_at) / Fold change (ACY-1035/veh), FGFR1OP (ProbeSet 11751329_s_at) / Fold change (Aza/veh), VPS36 (ProbeSet 11739960_a_at) / Fold change (ACY-1035/veh), VPS36 (ProbeSet 11739960_a_at) / RFU SYPL1 (11715823_x_at) / Fold change /veh SYPL1 (11715823_x_at) / RFU IGFBP7 (11715501_s_at) / Fold change /veh IGFBP7 (11715501_s_at) / RFU REEP3 (11722064_at) / Fold change /veh REEP3 (11722064_at) / RFU IGLL1 (11728026_x_at) / Fold change /veh IGLL1 (11728026_x_at): dose or concentration left out as unconfirmed
Settings: ProbeSet 11732281_s_at; LIST D

SMILES: Nc1ncn([C@@H]2O[C@H](CO)[C@@H](O)[C@H]2O)c(=O)n1 [azacitidine]
- Fold change vs veh, FOXP1: 0.63
